Test results from ChEMBL document CHEMBL3407382, “Syntheses of chondroitin sulfate tetrasaccharide structures containing 4,6-disulfate patterns and analysis of their interaction with glycosaminoglycan-binding protein” (Bioorg Med Chem Lett, 2015).

biological target: Fibroblast growth factor 2 (Homo sapiens, UniProt P09038); experiment: Binding affinity to FGF2 (unknown origin) assessed as change in luminance intensity at 25 degC by SPR imaging sensor method; conditions: not given
Sequence (P09038 143-288 limits assumed): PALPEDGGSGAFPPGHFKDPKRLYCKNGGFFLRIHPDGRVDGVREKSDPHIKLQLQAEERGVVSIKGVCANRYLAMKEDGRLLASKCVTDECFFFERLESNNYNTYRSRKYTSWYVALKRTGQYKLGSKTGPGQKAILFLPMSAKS

Kd | Structure (SMILES)
Not Active | CC(=O)N[C@H]1[C@H](OC[C@@H](O)[C@@H](O)[C@H](O)[C@@H](O)CNc2cccc(NC(=O)CCCCC3CCSS3)c2)O[C@H](COS(=O)(=O)[O-])[C@H](OS(=O)(=O)[O-])[C@@H]1O[C@@H]1O[C@H](C(=O)O)[C@@H](O[C@@H]2O[C@H](COS(=O)(=O)[O-])[C@H](O)[C@H](O[C@@H]3O[C@H](C(=O)O)[C@@H](O)[C@H](O)[C@H]3O)[C@H]2NC(C)=O)[C@H](O)[C@H]1O.[Na+].[Na+].[Na+] (stereo partly drawn)
Not Active | CC(=O)N[C@H]1[C@H](O[C@H]2[C@H](O)[C@@H](OS(=O)(=O)O)[C@H](O[C@H]3[C@@H](O)[C@@H](COS(=O)(=O)O)O[C@@H](OC[C@@H](O)[C@@H](O)[C@H](O)[C@@H](O)CNc4cccc(NC(=O)CCCCC5CCSS5)c4)[C@@H]3NC(C)=O)O[C@@H]2C(=O)O)O[C@H](COS(=O)(=O)O)[C@H](O)[C@@H]1O[C@@H]1O[C@H](C(=O)O)[C@@H](O)[C@H](O)[C@H]1O (stereo partly drawn)

same assay, conditions: read-out: Kd

Kd [nM] | Structure (SMILES)
16 | CC(=O)N[C@H]1[C@H](OCC(O)C(O)C(O)C(O)CNc2cccc(NC(=O)CCCCC3CCSS3)c2)O[C@H](COS(=O)(=O)O)[C@H](OS(=O)(=O)O)[C@@H]1O[C@@H]1O[C@H](C(=O)O)[C@@H](O[C@@H]2O[C@H](COS(=O)(=O)O)[C@H](O)[C@H](O[C@@H]3O[C@H](C(=O)O)[C@@H](O)[C@H](O)[C@H]3OS(=O)(=O)O)[C@H]2NC(C)=O)[C@H](O)[C@H]1OS(=O)(=O)O (stereo partly drawn)
5.6 | CC(=O)N[C@H]1[C@H](O[C@H]2[C@H](O)[C@@H](O)[C@H](O[C@@H]3[C@@H](NC(C)=O)[C@H](OC[C@@H](O)[C@@H](O)[C@H](O)[C@@H](O)CNc4cccc(NC(=O)CCCCC5CCSS5)c4)O[C@H](CO)[C@@H]3OS(=O)(=O)O)O[C@@H]2C(=O)O)O[C@H](COS(=O)(=O)O)[C@H](OS(=O)(=O)O)[C@@H]1O[C@@H]1O[C@H](C(=O)O)[C@@H](O)[C@H](O)[C@H]1O (stereo partly drawn)
8.2 | CC(=O)N[C@H]1[C@H](O[C@H]2[C@H](O)[C@@H](O)[C@H](O[C@H]3[C@@H](O)[C@@H](COS(=O)(=O)O)O[C@@H](OC[C@@H](O)[C@@H](O)[C@H](O)[C@@H](O)CNc4cccc(NC(=O)CCCCC5CCSS5)c4)[C@@H]3NC(C)=O)O[C@@H]2C(=O)O)O[C@H](COS(=O)(=O)O)[C@H](OS(=O)(=O)O)[C@@H]1O[C@@H]1O[C@H](C(=O)O)[C@@H](O)[C@H](O)[C@H]1O (stereo partly drawn)
5.2 | CC(=O)N[C@H]1[C@H](O[C@H]2[C@H](O)[C@@H](O)[C@H](O[C@@H]3[C@@H](NC(C)=O)[C@H](OC[C@@H](O)[C@@H](O)[C@H](O)[C@@H](O)CNc4cccc(NC(=O)CCCCC5CCSS5)c4)O[C@H](COS(=O)(=O)O)[C@@H]3OS(=O)(=O)O)O[C@@H]2C(=O)O)O[C@H](COS(=O)(=O)O)[C@H](OS(=O)(=O)O)[C@@H]1O[C@@H]1O[C@H](C(=O)O)[C@@H](O)[C@H](O)[C@H]1O (stereo partly drawn)
48 | CC(=O)N[C@H]1[C@H](OC[C@@H](O)[C@@H](O)[C@H](O)[C@@H](O)CNc2cccc(NC(=O)CCCCC3CCSS3)c2)O[C@H](COS(=O)(=O)O)[C@H](O)[C@@H]1O[C@@H]1O[C@H](C(=O)O)[C@@H](O[C@@H]2O[C@H](COS(=O)(=O)O)[C@H](O)[C@H](O[C@@H]3O[C@H](C(=O)O)[C@@H](O)[C@H](O)[C@H]3OS(=O)(=O)O)[C@H]2NC(C)=O)[C@H](O)[C@H]1OS(=O)(=O)O (stereo partly drawn)
4.7 | CC(=O)N[C@H]1[C@H](O[C@H]2[C@H](O)[C@@H](OS(=O)(=O)O)[C@H](O[C@H]3[C@@H](O)[C@@H](COS(=O)(=O)O)O[C@@H](OC[C@@H](O)[C@@H](O)[C@H](O)[C@@H](O)CNc4cccc(NC(=O)CCCCC5CCSS5)c4)[C@@H]3NC(C)=O)O[C@@H]2C(=O)O)O[C@H](COS(=O)(=O)O)[C@H](OS(=O)(=O)O)[C@@H]1O[C@@H]1O[C@H](C(=O)O)[C@@H](O)[C@H](O)[C@H]1O (stereo partly drawn)
